Experimental data reported in patent publication US20240245659A1, “Methods of Treating Cushing's Syndrome and Liver Disorders, and of Reducing Liver Toxicity of Other Drugs Administered to a Patient” (Corcept Therapeutics Incorporated, priority 2022, published 2024).

Experiments:
[1] = Phase 1 hepatic impairment study of relacorilant (moderate hepatic impairment vs matched controls); format: in vivo, human
Procedure: A phase 1, open-label, multiple-dose study included 18 subjects (18-70 years). Of these subjects, 9 subjects had moderate hepatic impairment (Child—Pugh Class B) and 9 subjects were controls with normal hepatic function matched for age, sex, and body weight.
Relacorilant was administered at a dose of 300 mg/day for 10 days under fasted conditions. Blood samples for pharmacokinetic (PK) analysis were collected before dosing on Day 1 and from before dosing on Day 10 through 144 hours after the last dose of study drug (Day 16).
Subjects with moderate hepatic impairment were well matched for age, sex, and body weight Mean total Child-Pugh score of 7.9 (range: 7-9) in subjects with moderate hepatic impairment. Liver function was assessed by measurements of alanine aminotransferase (ALT) and aspartate aminotransferase (AST) levels.

[2] = Phase 2 Cushing's syndrome study, low-dose and high-dose groups; format: in vivo, human
Procedure: A multicenter, open-label study with two dose groups enrolled 34 patients (aged 18-80 years) with endogenous Cushing's Syndrome (CS) and impaired glucose tolerance or type 2 diabetes mellitus and/or uncontrolled or untreated hypertension. Patients with elevated AST or ALT (elevated defined as greater than 3-times the ULN) were excluded. These patients were treated with relacorilant at two dosage levels. The dosages for each group were escalated in 50-mg dose increments every 4 weeks. The low dose group received relacorilant beginning at a dose of 100 mg/day, escalating to dosages of 200 mg/day during the duration of the 12-week treatment. The high-dose group received relacorilant beginning at a dose of 250 mg/day, escalating to a dosage of 400 mg/day during the duration of the 16-week treatment. The P-values shown are the P-values for the mean change from baseline to last observation calculated from the Wilcoxon signed-rank test. The Efficacy Population includes all patients treated with relacorilant who had postbaseline data.

[3] = target: CYP3A4 (Homo sapiens, UniProt P08684); conditions: in vivo; cited from earlier work
[4] = target: T1, CYP2C8 (Homo sapiens, UniProt P10632); conditions: on administration; cited from earlier work
T1 sequence (P10632 1-490): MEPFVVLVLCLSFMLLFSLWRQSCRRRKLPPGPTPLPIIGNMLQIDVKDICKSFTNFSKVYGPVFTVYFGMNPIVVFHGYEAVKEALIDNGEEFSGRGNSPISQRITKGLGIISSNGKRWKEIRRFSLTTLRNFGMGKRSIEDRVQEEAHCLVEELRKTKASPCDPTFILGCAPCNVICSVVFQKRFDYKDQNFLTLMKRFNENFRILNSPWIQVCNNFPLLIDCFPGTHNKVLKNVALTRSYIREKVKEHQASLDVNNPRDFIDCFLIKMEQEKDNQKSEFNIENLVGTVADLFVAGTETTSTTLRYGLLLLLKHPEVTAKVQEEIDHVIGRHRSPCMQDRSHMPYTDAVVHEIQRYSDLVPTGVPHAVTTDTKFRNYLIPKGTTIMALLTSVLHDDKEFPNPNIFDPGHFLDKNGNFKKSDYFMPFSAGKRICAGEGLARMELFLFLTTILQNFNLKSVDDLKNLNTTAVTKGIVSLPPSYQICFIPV

[5] = target: T2, glucocorticoid receptor type 2 (GR) (Homo sapiens, UniProt P04150); conditions: cited from earlier work
T2 sequence (P04150 1-777): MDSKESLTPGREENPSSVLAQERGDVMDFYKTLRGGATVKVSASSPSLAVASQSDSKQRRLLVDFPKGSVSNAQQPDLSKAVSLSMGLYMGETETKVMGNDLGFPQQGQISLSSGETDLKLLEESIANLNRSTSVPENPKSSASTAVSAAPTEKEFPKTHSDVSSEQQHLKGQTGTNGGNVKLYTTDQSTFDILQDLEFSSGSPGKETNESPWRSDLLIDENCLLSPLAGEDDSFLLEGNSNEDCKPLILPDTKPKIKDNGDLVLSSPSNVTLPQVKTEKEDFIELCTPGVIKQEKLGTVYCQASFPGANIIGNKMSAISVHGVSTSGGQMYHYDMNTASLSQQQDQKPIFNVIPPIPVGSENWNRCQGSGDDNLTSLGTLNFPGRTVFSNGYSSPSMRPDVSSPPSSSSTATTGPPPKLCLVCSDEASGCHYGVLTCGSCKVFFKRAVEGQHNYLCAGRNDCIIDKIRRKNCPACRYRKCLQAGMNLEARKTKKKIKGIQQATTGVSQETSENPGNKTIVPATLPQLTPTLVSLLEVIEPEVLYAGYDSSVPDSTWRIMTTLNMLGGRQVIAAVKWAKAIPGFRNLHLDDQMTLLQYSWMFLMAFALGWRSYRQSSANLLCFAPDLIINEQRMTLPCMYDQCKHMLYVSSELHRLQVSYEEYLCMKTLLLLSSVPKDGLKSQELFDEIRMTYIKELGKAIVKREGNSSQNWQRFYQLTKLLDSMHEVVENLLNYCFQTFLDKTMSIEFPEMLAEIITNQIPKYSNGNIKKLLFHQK

[6] = target: T3, progesterone receptor (Homo sapiens, UniProt P06401); conditions: cited from earlier work
T3 sequence (P06401 1-933): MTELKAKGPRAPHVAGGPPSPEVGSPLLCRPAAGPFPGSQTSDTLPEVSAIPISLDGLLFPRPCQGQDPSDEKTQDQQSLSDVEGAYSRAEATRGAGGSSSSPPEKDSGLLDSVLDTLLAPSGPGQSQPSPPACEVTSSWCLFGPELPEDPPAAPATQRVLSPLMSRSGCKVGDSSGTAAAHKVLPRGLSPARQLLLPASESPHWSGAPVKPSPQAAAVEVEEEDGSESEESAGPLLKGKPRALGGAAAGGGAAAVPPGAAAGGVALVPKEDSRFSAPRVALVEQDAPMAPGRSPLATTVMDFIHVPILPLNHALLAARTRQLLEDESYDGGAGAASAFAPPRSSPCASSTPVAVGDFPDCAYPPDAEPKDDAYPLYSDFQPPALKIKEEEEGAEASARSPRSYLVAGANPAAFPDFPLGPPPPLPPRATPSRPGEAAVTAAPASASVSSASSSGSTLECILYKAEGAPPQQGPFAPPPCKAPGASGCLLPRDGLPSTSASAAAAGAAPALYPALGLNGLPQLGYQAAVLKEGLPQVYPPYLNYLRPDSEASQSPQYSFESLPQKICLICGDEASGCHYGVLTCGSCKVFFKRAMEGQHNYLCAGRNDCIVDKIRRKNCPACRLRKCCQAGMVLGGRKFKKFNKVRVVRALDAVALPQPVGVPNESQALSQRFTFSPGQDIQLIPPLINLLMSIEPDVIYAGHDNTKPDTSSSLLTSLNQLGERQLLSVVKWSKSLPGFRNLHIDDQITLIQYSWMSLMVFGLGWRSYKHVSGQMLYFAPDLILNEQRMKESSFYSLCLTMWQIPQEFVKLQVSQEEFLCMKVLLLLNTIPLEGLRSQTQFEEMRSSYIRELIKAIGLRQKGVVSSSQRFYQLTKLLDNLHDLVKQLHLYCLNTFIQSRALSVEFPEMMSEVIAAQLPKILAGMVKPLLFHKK

[7] = Cushing's syndrome patients; cited from earlier work
[8] = via CYP3A and carbonyl reductase; cited from earlier work
[9] = target: CYP2C9 (Homo sapiens, UniProt P11712); conditions: on administration; cited from earlier work
Chain of CYP2C9 (P11712 whole entry): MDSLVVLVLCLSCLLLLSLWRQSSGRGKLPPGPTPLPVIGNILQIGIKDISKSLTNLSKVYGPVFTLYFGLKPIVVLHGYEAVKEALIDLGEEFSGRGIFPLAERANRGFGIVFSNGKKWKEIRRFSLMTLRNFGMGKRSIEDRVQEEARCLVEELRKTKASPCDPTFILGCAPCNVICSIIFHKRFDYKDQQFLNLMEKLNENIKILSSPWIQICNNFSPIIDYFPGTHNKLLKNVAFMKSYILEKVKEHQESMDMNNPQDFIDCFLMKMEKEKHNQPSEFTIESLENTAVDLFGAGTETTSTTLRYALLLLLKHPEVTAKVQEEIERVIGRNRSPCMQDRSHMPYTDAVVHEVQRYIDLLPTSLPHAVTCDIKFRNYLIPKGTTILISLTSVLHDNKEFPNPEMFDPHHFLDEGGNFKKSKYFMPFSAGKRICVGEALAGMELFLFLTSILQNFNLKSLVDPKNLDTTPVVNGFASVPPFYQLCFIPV

Chain of CYP3A4 (P08684 whole entry): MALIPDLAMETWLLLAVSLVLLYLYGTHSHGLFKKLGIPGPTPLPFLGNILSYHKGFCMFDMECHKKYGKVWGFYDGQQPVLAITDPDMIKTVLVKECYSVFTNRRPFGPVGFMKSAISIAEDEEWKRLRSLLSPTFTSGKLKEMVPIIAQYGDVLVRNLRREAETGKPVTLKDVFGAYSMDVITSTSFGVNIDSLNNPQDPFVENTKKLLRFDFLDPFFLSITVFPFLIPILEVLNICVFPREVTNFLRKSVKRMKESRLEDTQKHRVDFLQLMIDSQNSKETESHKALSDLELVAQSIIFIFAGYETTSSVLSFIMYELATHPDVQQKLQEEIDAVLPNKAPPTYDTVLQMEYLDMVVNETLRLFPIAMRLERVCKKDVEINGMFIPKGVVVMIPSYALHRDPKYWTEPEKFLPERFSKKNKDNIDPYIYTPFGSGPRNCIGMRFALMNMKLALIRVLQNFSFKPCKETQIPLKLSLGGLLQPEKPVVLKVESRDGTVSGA

Cn1cc(S(=O)(=O)N2CCC3=Cc4c(cnn4-c4ccc(F)cc4)C[C@]3(C(=O)c3cc(C(F)(F)F)ccn3)C2)cn1 [relacorilant, (R)-(1-(4-fluorophenyl)-6-((1-methyl-1H-pyrazol-4-yl)sulfonyl)-4,4a,5,6,7,8-hexahydro-1H-pyrazolo[3,4-g]isoquinolin-4a-yl)(4-(trifluoromethyl)pyridin-2-yl)methanone]
pharmacokinetic difference, moderate hepatic impairment vs matched controls ([1]; 300 mg/day for 10 days, fasted): No apparent difference
relacorilant exposures (area under the curve and maximum plasma concentration) across both groups ([1]; moderate hepatic impairment vs matched controls): largely overlapped
change in mean liver function tests (ALT, AST) ([1]; patients with moderate hepatic impairment, 300 mg/day for 10 days, fasted, baseline to Day 16): Reductions
normalization of ALT in patients with abnormal ALT values at baseline ([2]; Cushing's syndrome patients): 2 of 4
change in LFTs, baseline to last observation ([2]; both dose groups (100-200 mg/day 12 weeks; 250-400 mg/day 16 weeks)): Reductions
change in LFTs, high-dose group compared with low-dose group ([2]; high-dose group 250-400 mg/day, 16 weeks): greater reductions
CYP3A4 inhibition [3]: strong CYP3A4 inhibitor
CYP2C8 inhibition [4]: does not result in clinically significant inhibition
binding to GR [5]: binds
affinity for the progesterone receptor [6]: lacks affinity
antiprogesterone effects or drug-induced hypokalemia [7]: without antiprogesterone effects or drug-induced hypokalemia
effect on hypertension and hyperglycemia [7]: clinically meaningful improvement
other cortisol-excess-related comorbidities (hypercoagulopathy, cognitive function, mood, quality of life) [7]: Improvement
route of elimination [8]: primarily hepatic
CYP2C9 inhibition [9]: does not result in clinically significant inhibition
